Laboratory results taken from patent publication US20110045073A1, “METHODS AND COMPOSITIONS OF SPHINGOLIPID FOR PREVENTING AND TREATING MICROBIAL INFECTIONS” (priority 2008, published 2011).

Experiments:
Format in all cases: cell-based, Candida albicans
C. albicans (ATTC 10231) [1] = assay: microdilution viability assay (plate assay, CFU count); conditions: 1 mM PPB, 60 min at 30° C., CFUs counted
Description: C. albicans (ATTC 10231), cultured aerobically at 30° C. on Sabouraud dextrose agar plates (SDA, Oxoid, Hampshire, UK) was suspended in 25 ml of Sabouraud dextrose broth in a 100 ml erlenmeyer flask. After 20 h of incubation at 30° C., 1 ml from this suspension was sub-cultured for 1-2 h in 20 ml of Sabouraud dextrose broth, to obtain a mid-log phase culture. Cells were washed twice in 1 mM potassium phosphate (PPB) or 5 mM Tris (pH 7.2), and resuspended in the same buffer to a cell density of 2 McFarland (McF) (approximately 10^7 cells/ml). The effects of PHS and Hst5 on the viability of C. albicans were determined in a microdilution viability assay. 50 μl aliquots from a mid-log phase culture of C. albicans were incubated with equal volumes of either peptide or PHS solutions (0.3 to 100 μM) and incubated at 30° C. for 60 min. The incubation mixtures were appropriately diluted (200- to 500-fold) in PBS and 25 μl aliquots were plated on SDA. After 48 h incubation at 30° C. the numbers of CFUs were counted. All experiments were repeated at least three times in duplo. The effect of PHS-treatment on the viability of C. albicans was determined in a micro-dilution viability assay, at the concentration range 0-500 μM (FIG. 1). For comparison the effect of treatment with Hst5 (0-50 μM) is shown. […]

C. albicans = assay: synergism between histatin 5 and PHS: PI fluorescence after PHS preincubation, energy-rich (NaCl) or energy-depleted (NaN3); conditions: for extent of additional increase in PI-fluorescence on addition of Hst5: 25 μM PHS preincubation
Description: C. albicans (ATTC 10231), cultured aerobically at 30° C. on Sabouraud dextrose agar plates (SDA, Oxoid, Hampshire, UK) was suspended in 25 ml of Sabouraud dextrose broth in a 100 ml erlenmeyer flask. After 20 h of incubation at 30° C., 1 ml from this suspension was sub-cultured for 1-2 h in 20 ml of Sabouraud dextrose broth, to obtain a mid-log phase culture. Cells were washed twice in 1 mM potassium phosphate (PPB) or 5 mM Tris (pH 7.2), and resuspended in the same buffer to a cell density of 2 McFarland (McF) (approximately 10^7 cells/ml). Cells were suspended in 5 mM Tris buffer (pH 7.2), supplemented with either 5 mM NaCl or 5 mM NaN3. These suspensions were subsequently incubated with 0, 10, 50 and 100 μM PHS dissolved in 5 mM Tris buffer. After 60 minutes of incubation at 30° C., PI was added, and subsequently dilution series of Hst 5 in the corresponding buffer were added. Final concentration of PI was 10 μM, final concentrations of Hst5 ranged between 0 and 50 μM, final cell density was 10^7 cells/ml and final PHS concentrations were 0, 5, 25 and 50 μM. After 0, 20, 40 and 60 minutes the PI fluorescence was monitored at excitation and emission wavelengths of 544 and 620 nm, respectively, in a Fluostar Galaxy microplate fluorimeter (BMFG Labtechnologies, Offenburg, Germany).

C. albicans (ATTC 10231) [2] = assay: membrane-disruptive activity, propidium iodide fluorescence (PI assay); conditions: 1 mM PPB, after 15 and 60 minutes
Description: C. albicans (ATTC 10231), cultured aerobically at 30° C. on Sabouraud dextrose agar plates (SDA, Oxoid, Hampshire, UK) was suspended in 25 ml of Sabouraud dextrose broth in a 100 ml erlenmeyer flask. After 20 h of incubation at 30° C., 1 ml from this suspension was sub-cultured for 1-2 h in 20 ml of Sabouraud dextrose broth, to obtain a mid-log phase culture. Cells were washed twice in 1 mM potassium phosphate (PPB) or 5 mM Tris (pH 7.2), and resuspended in the same buffer to a cell density of 2 McFarland (McF) (approximately 10^7 cells/ml).
Membrane-disruptive activity of Hst5 and phytosphingosine (PHS) was determined by monitoring the fluorescence enhancement of propidium iodide (Invitrogen, Breda, The Netherlands) in Hst5- or PHS treated cells. The membrane impermeant propidium iodide (PI) only enters membrane-compromised cells, after which the fluorescence of this probe is enhanced 20-30-fold due to its binding to nucleic acids.
Cells obtained by the method described above were suspended in 1 mM PPB buffer (pH 7.2) supplemented with PI (final concentration 10 μM) and subsequently added to two-fold serial dilutions of Hst5 (50 μM down to 0.045 μM) or PHS (500 down to 0.5 μM). Final cell density in the assay was 1 McF. […]

Molecule | concentration at which complete killing was reached (C. albicans (ATTC 10231) [1]) [µM] | PI fluorescence induced by PHS preincubation alone (C. albicans; 25 μM PHS in the presence of NaN3, vs control with NaCl) | effect of PHS pretreatment on sensitivity of C. albicans to Hst5 (C. albicans; non-lethal dosages PHS, in particular energy-depleted conditions) | effect of PHS preincubation on Hst5-mediated influx of PI (C. albicans; preincubation with 25 or 50 μM PHS, NaCl, 6.1 μM Hst5, relative to 0 μM PHS) | concentration needed to induce uptake of PI, Hst5 compared with PHS (C. albicans (ATTC 10231) [2]) | extent of additional increase in PI-fluorescence on addition of Hst5 (C. albicans; NaCl control (energy-rich)) [fluorescence units] | extent of additional increase in PI-fluorescence on addition of Hst5 (C. albicans; NaN3 (energy-depleted)) | effect of energy-depletion on sensitivity of C. albicans to the substance (C. albicans; 5 mM NaN3 vs 5 mM NaCl in 5 mM Tris, t=0 and t=20 min) | lowest Hst5 concentration with immediate additional increase in PI fluorescence (C. albicans; after pre-incubation with 25 μM PHS, NaCl, t=0) [µM]
CCCCCCCCCCCCCC[C@@H](O)[C@@H](O)[C@@H](N)CO [PHS, phytosphingosine] | 250 | induces an increase in PI fluorescence, comparable to that of the control | increases its sensitivity to Hst5 | instantaneously accelerates the Hst5-mediated influx of PI |  |  |  |  | 
histatin 5 (DSHAKRHHGYKRKFHEKHHSHRGY) [Hst5] | 10 |  |  |  | induced the uptake of PI at much lower concentrations | 1000 | approx 500 fluorescence units | energy-depletion protects C. albicans against Hst5 | 0.75
